Measurements from patent US10519152B2, “Compounds and their use in treating cancer” (AstraZeneca AB, priority 2017, dated 2019).

Legend:
[1] = molecular target: T1, recombinant human Estrogen Receptor alpha ligand binding domain, residues 307-554 (ER alpha-LBD (GST)) (Homo sapiens, UniProt P03372); assay: ERα binding assay (LanthaScreen TR-FRET competition); conditions: TR-FRET competition with Fluormone ES2 tracer, 4 hours at room temperature; single experiment or average of two or more
T1 construct: made in house
T1 sequence (P03372 307-554): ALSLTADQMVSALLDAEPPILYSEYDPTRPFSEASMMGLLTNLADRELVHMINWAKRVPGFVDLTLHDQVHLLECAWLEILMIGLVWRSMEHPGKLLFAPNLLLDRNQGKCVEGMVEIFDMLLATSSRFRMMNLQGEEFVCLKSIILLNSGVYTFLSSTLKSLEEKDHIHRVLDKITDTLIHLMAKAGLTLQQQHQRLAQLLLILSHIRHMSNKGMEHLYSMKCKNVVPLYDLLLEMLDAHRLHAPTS
Method: The ability of compounds to bind to isolated Estrogen Receptor Alpha Ligand binding domain (ER alpha-LBD (GST)) was assessed in competition assays using a LanthaScreen™ Time-Resolved Fluorescence Resonance Energy Transfer (TR-FRET) detection end-point. For the LanthaScreen TR-FRET endpoint, a suitable fluorophore (Fluormone ES2, ThermoFisher, Product code P2645) and recombinant human Estrogen Receptor alpha ligand binding domain, residues 307-554 (expressed and purified in-house) were used to measure compound binding. The assay principle is that ER alpha-LBD (GST) is added to a fluorescent ligand to form a receptor/fluorophore complex. A terbium-labelled anti-GST antibody (Product code PV3551) is used to indirectly label the receptor by binding to its GST tag, and competitive binding is detected by a test compound's ability to displace the fluorescent ligand, resulting in a loss of TR-FRET signal between the Tb-anti-GST antibody and the tracer. The assay was performed as follows with all reagent additions carried out using the Beckman Coulter BioRAPTR FRD microfluidic workstation: • 1. Acoustic dispense 120 nL of the test compound into a black low volume 384 well assay plates. • 2. Prepare 1×ER alpha-LBD/Tb-antiGST Ab in ES2 screening buffer and incubate for 15 minutes. • 3. Dispense 6 μL of the […] reagent into each well of the assay plate followed by 6 μL of Fluorophore reagent into each well of the assay plate • 4. Cover the assay plate to protect the reagents from light and evaporation, and incubate at room temperature for 4 hours. • 5. Excite at 337 nm and measure the fluorescent emission signal of each well at 490 nm and 520 nm using the BMG PheraSTAR.
Compounds were dosed directly from a compound source microplate containing serially diluted compound (4 wells containing 10 mM, […] and 10 nM final compound respectively) to an assay microplate using the Labcyte Echo 550. The Echo 550 is a liquid handler that uses acoustic technology to perform direct microplate-to-microplate transfers of DMSO compound solutions and the system can be programmed to transfer multiple small nL volumes of compound from the different source plate wells to give the desired serial dilution of compound in the assay which is then back-filled to normalise the DMSO concentration across the dilution range.
In total 120 nL of compound plus DMSO were added to each well and compounds were tested in a 12-point concentration response format over a final compound concentration range of 10, 2.917, 1.042, 0.2083, 0.1, 0.0292, 0.0104, 0.002083, 0.001, 0.0002917, 0.0001042, and 0.00001 μM respectively. TR-FRET dose response data obtained with each compound was exported into a suitable software package (such as Origin or Genedata) to perform curve fitting analysis. Competitive ER alpha binding was expressed as an IC50 value. This was determined by calculation of the concentration of compound that was required to give a 50% reduction in tracer compound binding to ER alpha-LBD.

[2] = molecular target: T2, Estrogen Receptor (ERα) in MCF-7 human ductal carcinoma breast cell line (Homo sapiens, UniProt P03372); assay: MCF-7 ER degradation assay (cell based immuno-fluorescence); conditions: MCF-7 cells; for DC50: 18-22 hours incubation, 50% reduction of ERα expression, single experiment or average of two or more, read-out: MCF-7 ER degradation IC50; for ER degradation ≥ 90% at 0.3 μM: ER degradation by fulvestrant at 0.3 μM is defined as 100%
T2 construct: endogenous in cells; host or cells: MCF-7
T2 sequence (P03372 1-595): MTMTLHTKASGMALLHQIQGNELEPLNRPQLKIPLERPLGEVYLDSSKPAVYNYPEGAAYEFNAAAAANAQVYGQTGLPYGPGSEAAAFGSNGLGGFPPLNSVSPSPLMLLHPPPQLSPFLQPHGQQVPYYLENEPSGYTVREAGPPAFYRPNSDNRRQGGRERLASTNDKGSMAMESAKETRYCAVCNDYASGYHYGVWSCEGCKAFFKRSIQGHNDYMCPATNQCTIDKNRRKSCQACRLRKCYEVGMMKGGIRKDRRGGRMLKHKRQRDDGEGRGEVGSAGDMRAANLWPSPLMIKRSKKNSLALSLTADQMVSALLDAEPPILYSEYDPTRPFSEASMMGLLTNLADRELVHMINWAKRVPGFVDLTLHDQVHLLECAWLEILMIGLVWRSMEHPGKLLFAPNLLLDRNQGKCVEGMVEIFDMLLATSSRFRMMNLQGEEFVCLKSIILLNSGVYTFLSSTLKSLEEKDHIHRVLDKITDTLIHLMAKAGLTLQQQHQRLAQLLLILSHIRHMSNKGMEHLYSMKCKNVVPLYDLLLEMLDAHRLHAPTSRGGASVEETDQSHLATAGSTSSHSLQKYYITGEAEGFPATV
In short: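 MCF-7 human ductal carcinoma breast cells were seeded at 3.75×10^4 cells per mL (40 μL per well) in 384 well plates with phenol red free DMEM containing 2 mM L-Glutamine and 5% (v/v) Charcoal/Dextran treated foetal calf serum. After overnight culture, compounds were acoustically dispensed, incubated 18-22 hours, then cells were formaldehyde-fixed and immunostained for ERα.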

SMILES | IC50 [1] | DC50 [2] | ER degradation ≥ 90% at 0.3 μM [2]
Cc1ncsc1-c1ccc(CNC(=O)[C@@H]2C[C@@H](O)CN2C(=O)[C@@H](NC(=O)CCCCCNCCCCOc2cc(F)c([C@@H]3c4[nH]c5ccccc5c4C[C@@H](C)N3CC(C)(C)F)c(F)c2)C(C)(C)C)cc1 [Example 145, (2S,4R)-1-((S)-2-(6-((4-(3,5-Difluoro-4-((1R,3R)-2-(2-fluoro-2-methylpropyl)-3-methyl-2,3,4,9-tetrahydro-1H-pyrido[3,4-b]indol-1-yl)phenoxy)butyl)amino)hexanamido)-3,3-dimethylbutanoyl)-4-hydroxy-N-(4-(4-methylthiazol-5-yl)benzyl)pyrrolidine-2-carboxamide] | 1100 pM | 2700 pM | 
Cc1ncsc1-c1ccc(CNC(=O)[C@@H]2C[C@@H](O)CN2C(=O)[C@@H](NC(=O)CNCCCCCOc2cc(F)c([C@@H]3c4[nH]c5ccccc5c4C[C@@H](C)N3CC(C)(C)F)c(F)c2)C(C)(C)C)cc1 [Example 89, (2S,4R)-1-((S)-2-(2-((5-(3,5-Difluoro-4-((1R,3R)-2-(2-fluoro-2-methylpropyl)-3-methyl-2,3,4,9-tetrahydro-1H-pyrido[3,4-b]indol-1-yl)phenoxy)pentyl)amino)acetamido)-3,3-dimethylbutanoyl)-4-hydroxy-N-(4-(4-methylthiazol-5-yl)benzyl)pyrrolidine-2-carboxamide] | 700 pM | 700 pM | 
Cc1ncsc1-c1ccc(CNC(=O)[C@@H]2C[C@@H](O)CN2C(=O)[C@@H](NC(=O)COCCCOc2cc(F)c([C@@H]3c4[nH]c5ccccc5c4C[C@@H](C)N3CC(C)(C)F)c(F)c2)C(C)(C)C)cc1 [Example 41, (2S,4R)-1-((S)-2-(2-(3-(3,5-difluoro-4-((1R,3R)-2-(2-fluoro-2-methylpropyl)-3-methyl-2,3,4,9-tetrahydro-1H-pyrido[3,4-b]indol-1-yl)phenoxy)propoxy)acetamido)-3,3-dimethylbutanoyl)-4-hydroxy-N-(4-(4-methylthiazol-5-yl)benzyl)pyrrolidine-2-carboxamide] | 700 pM | 1700 pM | 
Cc1ncsc1-c1ccc(CNC(=O)[C@@H]2C[C@@H](O)CN2C(=O)[C@@H](NC(=O)CCOCCCCOc2cc(F)c([C@@H]3c4[nH]c5ccccc5c4C[C@@H](C)N3CC(C)(C)F)c(F)c2)C(C)(C)C)cc1 [Example 92, (2S,4R)-1-((S)-2-(3-(4-(3,5-difluoro-4-((1R,3R)-2-(2-fluoro-2-methylpropyl)-3-methyl-2,3,4,9-tetrahydro-1H-pyrido[3,4-b]indol-1-yl)phenoxy)butoxy)propanamido)-3,3-dimethylbutanoyl)-4-hydroxy-N-(4-(4-methylthiazol-5-yl)benzyl)pyrrolidine-2-carboxamide] | 600 pM | 400 pM | 
Cc1ncsc1-c1ccc(CNC(=O)[C@@H]2C[C@@H](O)CN2C(=O)[C@@H](NC(=O)COCCCOCCCOc2cc(F)c([C@@H]3c4[nH]c5ccccc5c4C[C@@H](C)N3CC(C)(C)F)c(F)c2)C(C)(C)C)cc1 [Example 72, (2S,4R)-1-((S)-2-(2-(3-(3-(3,5-Difluoro-4-((1R,3R)-2-(2-fluoro-2-methylpropyl)-3-methyl-2,3,4,9-tetrahydro-1H-pyrido[3,4-b]indol-1-yl)phenoxy)propoxy)propoxy)acetamido)-3,3-dimethylbutanoyl)-4-hydroxy-N-(4-(4-methylthiazol-5-yl)benzyl)pyrrolidine-2-carboxamide] | 600 pM |  | ••
CC(=O)O[C@@H]1C[C@@H](C(=O)NCc2ccc(-c3scnc3C)cc2)N(C(=O)[C@@H](NC(=O)COCCCCCCOc2cc(F)c([C@@H]3c4[nH]c5ccccc5c4C[C@@H](C)N3CC(C)(C)F)c(F)c2)C(C)(C)C)C1 [Example 52, (3R,5S)-1-((S)-2-(2-((6-(3,5-difluoro-4-((1R,3R)-2-(2-fluoro-2-methylpropyl)-3-methyl-2,3,4,9-tetrahydro-1H-pyrido[3,4-b]indol-1-yl)phenoxy)hexyl)oxy)acetamido)-3,3-dimethylbutanoyl)-5-((4-(4-methylthiazol-5-yl)benzyl)carbamoyl)pyrrolidin-3-yl acetate] | 1100 pM | 2100 pM | 
Cc1ncsc1-c1ccc(CNC(=O)[C@@H]2C[C@@H](O)CN2C(=O)[C@@H](NC(=O)COCCOCCOc2cc(F)c([C@@H]3c4[nH]c5ccccc5c4C[C@@H](C)N3CC(C)(C)F)c(F)c2)C(C)(C)C)cc1 [Example 39, (2S,4R)-1-((S)-2-(2-(2-(2-(3,5-difluoro-4-((R,3R)-2-(2-fluoro-2-methylpropyl)-3-methyl-2,3,4,9-tetrahydro-1H-pyrido[3,4-b]indol-1-yl)phenoxy)ethoxy)ethoxy)acetamido)-3,3-dimethylbutanoyl)-4-hydroxy-N-(4-(4-methylthiazol-5-yl)benzyl)pyrrolidine-2-carboxamide] | 700 pM |  | •
Cc1ncsc1-c1ccc(CNC(=O)[C@@H]2C[C@@H](O)CN2C(=O)[C@@H](NC(=O)COCCCOCCOc2cc(F)c([C@@H]3c4[nH]c5ccccc5c4C[C@@H](C)N3CC(C)(C)F)c(F)c2)C(C)(C)C)cc1 [Example 25, (2S,4R)-1-((S)-2-(2-(3-(2-(3,5-Difluoro-4-((1R,3R)-2-(2-fluoro-2-methylpropyl)-3-methyl-2,3,4,9-tetrahydro-1H-pyrido[3,4-b]indol-1-yl)phenoxy)ethoxy)propoxy)acetamido)-3,3-dimethylbutanoyl)-4-hydroxy-N-(4-(4-methylthiazol-5-yl)benzyl)pyrrolidine-2-carboxamide] | 500 pM |  | ••
Cc1ncsc1-c1ccc(CNC(=O)[C@@H]2C[C@@H](O)CN2C(=O)[C@@H](NC(=O)c2ccc(CCCCCOc3cc(F)c([C@@H]4c5[nH]c6ccccc6c5C[C@@H](C)N4CC(C)(C)F)c(F)c3)cc2)C(C)(C)C)cc1 [Example 27, (2S,4R)-1-((S)-2-(4-(5-(3,5-Difluoro-4-((1R,3R)-2-(2-fluoro-2-methylpropyl)-3-methyl-2,3,4,9-tetrahydro-1H-pyrido[3,4-b]indol-1-yl)phenoxy)pentyl)benzamido)-3,3-dimethylbutanoyl)-4-hydroxy-N-(4-(4-methylthiazol-5-yl)benzyl)pyrrolidine-2-carboxamide] | 1100 pM | 22000 pM | 
